13 molecules from PubChem BioAssay (NCI) can be followed below.

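Each compound was tested at five concentrations against cells in 96-well plates for 48 hours. GI50 marks 50% less growth. TGI is the concentration that stops growth completely.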

Test systems include OVCAR-3 ovarian; SK-MEL-5 melanoma; SF-295 CNS; A549 NSCLC; EKVX NSCLC; SK-MEL-28 melanoma; UACC-62 melanoma; UO-31 renal; K-562 leukemia; OVCAR-5 ovarian.
Common to all, as to assay: NCI-60 cell line screen, 48 h

Take `CC1(C)[C@@H]2CC[C@]1(C)[C@H](OC(=O)/C=C/c1ccccc1)C2`: the TGI was 19.6 µM with OVCAR-3 ovarian; 30.5 µM in the assay on SK-MEL-5 melanoma; 36.3 µM with SF-295 CNS; above 100 µM in the assay with A549 NSCLC; 41.8 µM in the assay with EKVX NSCLC; 50.4 µM in the assay with SK-MEL-28 melanoma. The TGI in the assay on UACC-62 melanoma turned out to be 57.5 µM; in the assay with UO-31 renal it was 34 µM; in the assay on K-562 leukemia, 38.1 µM; in the assay with OVCAR-5 ovarian, 39.1 µM.
With `CC(CC(N)C(=O)O)C(=O)O` (configuration not stated), the TGI in the assay on OVCAR-3 ovarian, in the assay with SK-MEL-5 melanoma, with SF-295 CNS, in the assay on A549 NSCLC, with EKVX NSCLC and in the assay on SK-MEL-28 melanoma was above 100 µM throughout. Besides, the TGI in the assay with UACC-62 melanoma, in the assay on UO-31 renal, in the assay on K-562 leukemia and in the assay on OVCAR-5 ovarian was above 100 µM each time.
`C=CCN1/C(=C(\C#N)c2nc3ccccc3[nH]2)Sc2c1nc[nH]c2=O`: the TGI with OVCAR-3 ovarian, in the assay on SK-MEL-5 melanoma, in the assay on SF-295 CNS, with A549 NSCLC, in the assay on EKVX NSCLC and in the assay on SK-MEL-28 melanoma was above 100 µM each time. For the same molecule, the TGI with UACC-62 melanoma, in the assay on UO-31 renal, in the assay with K-562 leukemia and in the assay with OVCAR-5 ovarian was above 100 µM each time.
On to `COc1cc(OC)cc(-c2ccc(-c3ccc(C(=N)N)cn3)o2)c1`, for which the GI50 was 1.89 µM in the assay with OVCAR-3 ovarian; 1.6 µM in the assay with SK-MEL-5 melanoma; 1.86 µM in the assay on SF-295 CNS; 1.86 µM in the assay with A549 NSCLC; 1.65 µM in the assay with SK-MEL-28 melanoma; 1.77 µM in the assay on UACC-62 melanoma. The figures for the GI50 with UO-31 renal, with K-562 leukemia and with OVCAR-5 ovarian were 1.59 µM, 1.32 µM and 1.74 µM, respectively. Also, the TGI with OVCAR-3 ovarian worked out at 3.46 µM; in the assay on SK-MEL-5 melanoma, 2.97 µM; in the assay on SF-295 CNS, 3.46 µM; in the assay on A549 NSCLC, 3.52 µM; with SK-MEL-28 melanoma it was 3.16 µM; with UACC-62 melanoma, 3.29 µM. The figures for the TGI in the assay on UO-31 renal, in the assay on K-562 leukemia and in the assay on OVCAR-5 ovarian were 3.06 µM, 2.98 µM and 3.2 µM, respectively.
Consider `COc1nc2cccc(C(O)c3ccccc3)c2nc1-c1ccccc1` (configuration not stated), for which the TGI with OVCAR-3 ovarian was 20.4 µM; with SK-MEL-5 melanoma, 13.1 µM; with SF-295 CNS it was 17 µM; in the assay on A549 NSCLC it was 54.5 µM; with EKVX NSCLC, 41.9 µM; in the assay with SK-MEL-28 melanoma it was above 100 µM. Besides, the TGI was 23.9 µM in the assay with UACC-62 melanoma, 68.7 µM in the assay with UO-31 renal, 19.7 µM in the assay on K-562 leukemia and 54.8 µM with OVCAR-5 ovarian.
As to `N#CC(N=Nc1ccccc1C(=O)O)C(N)=O` (configuration not stated), the TGI in the assay on OVCAR-3 ovarian, in the assay with SK-MEL-5 melanoma, in the assay with SF-295 CNS, in the assay on A549 NSCLC, in the assay with EKVX NSCLC and in the assay on SK-MEL-28 melanoma was above 100 µM each time. The TGI in the assay with UACC-62 melanoma, in the assay on UO-31 renal, in the assay on K-562 leukemia and in the assay on OVCAR-5 ovarian was above 100 µM each time.
As to `Cc1[nH]c(=O)[nH]c(=O)c1/C=C/C(=O)O` (tested in a mixture with another compound), the TGI with OVCAR-3 ovarian, in the assay on SK-MEL-5 melanoma, with SF-295 CNS, with A549 NSCLC, with EKVX NSCLC and with SK-MEL-28 melanoma was above 625 µM throughout. The TGI with UACC-62 melanoma, in the assay with UO-31 renal, in the assay on K-562 leukemia and with OVCAR-5 ovarian was above 625 µM each time.
On to `OCC1COc2cc(Cl)c(Cl)cc2O1` (configuration not stated), for which the TGI in the assay on OVCAR-3 ovarian, in the assay on SK-MEL-5 melanoma, in the assay on SF-295 CNS, with A549 NSCLC, in the assay on EKVX NSCLC and with SK-MEL-28 melanoma was above 10 µM throughout. Also, the TGI with UACC-62 melanoma, in the assay with UO-31 renal, in the assay on K-562 leukemia and in the assay on OVCAR-5 ovarian was above 10 µM each time.
As to `CCC(C)C(N)C(=O)NC(CC(N)=O)C(=O)NC(CC(C)C)C(=O)NC(CCCCN)C(=O)NC(C)C(=O)NC(CC(C)C)C(=O)NC(C)C(=O)NC(C)C(=O)NC(CC(C)C)C(=O)NC(C)C(=O)NC(CCCCN)C(=O)NC(CCCCN)C(=O)NC(C(=O)NC(CC(C)C)C(N)=O)C(C)CC` (configuration not stated), the TGI in the assay with OVCAR-3 ovarian was found to be 22.6 µM; with SK-MEL-5 melanoma it was 14.3 µM; with SF-295 CNS, 35.3 µM; in the assay with A549 NSCLC, 24.9 µM; in the assay with EKVX NSCLC it was 18.7 µM; with SK-MEL-28 melanoma, 22 µM. In addition, the TGI is 13.8 µM in the assay on UACC-62 melanoma, 32.1 µM with UO-31 renal, 36.3 µM in the assay on K-562 leukemia and 28 µM in the assay with OVCAR-5 ovarian.
With `O=c1[nH]nc(NCc2ccccc2)c2nnn(Cc3ccccc3)c12`, the TGI with OVCAR-3 ovarian, in the assay on SK-MEL-5 melanoma, with SF-295 CNS, in the assay on A549 NSCLC, in the assay on EKVX NSCLC and with SK-MEL-28 melanoma was above 100 µM in each case. Besides, the TGI in the assay on UO-31 renal, in the assay with K-562 leukemia and in the assay on OVCAR-5 ovarian was above 100 µM throughout.
On to `NCCSc1cc(O)c2c(c1N)C(=O)c1ccccc1C2=O`, for which the TGI in the assay on OVCAR-3 ovarian is above 100 µM; in the assay on SK-MEL-5 melanoma, 33.4 µM; with SF-295 CNS it was above 100 µM; in the assay with A549 NSCLC, above 100 µM; in the assay with EKVX NSCLC, above 100 µM; with SK-MEL-28 melanoma, above 100 µM. Besides, the TGI with UACC-62 melanoma is above 100 µM; in the assay with UO-31 renal it was above 100 µM; in the assay with K-562 leukemia, 69.1 µM; in the assay on OVCAR-5 ovarian, above 100 µM.
`CSCC[C@@H]1C(=O)N(C)[C@H](C(C)(C)C)N1C(=O)c1ccccc1`: the TGI in the assay on OVCAR-3 ovarian, with SK-MEL-5 melanoma, in the assay on SF-295 CNS, with A549 NSCLC, in the assay with EKVX NSCLC and in the assay with SK-MEL-28 melanoma was above 100 µM each time. Moreover, the TGI with UACC-62 melanoma, in the assay on UO-31 renal, with K-562 leukemia and in the assay on OVCAR-5 ovarian was above 100 µM in each case.
`COc1cc2c3cc1Oc1c(O)c(OC)cc4c1C(Cc1ccc(O)c(c1)Oc1ccc(cc1)CC3N(C)CC2)N(C)CC4` (configuration not stated): the TGI with OVCAR-3 ovarian was found to be 30.5 µM; in the assay with SK-MEL-5 melanoma, 32.9 µM; with SF-295 CNS, 29.7 µM; with A549 NSCLC, 31.4 µM; in the assay on EKVX NSCLC, 37.1 µM; with SK-MEL-28 melanoma it was 32.8 µM. Also, the TGI in the assay with UACC-62 melanoma turned out to be 42.9 µM; in the assay with UO-31 renal it was 29.3 µM; with K-562 leukemia, 10.3 µM; in the assay on OVCAR-5 ovarian, 38.4 µM.
